Experimental data as given in PubChem BioAssay (NCI).
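In this assay, cells in 96-well plates receive the compound at five concentrations for 48 hours. Endpoints are linearly interpolated between the surrounding concentrations. Definition used: TGI = concentration required for complete inhibition of growth.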

Experiments:
Assay in all cases: inhibition of tumour cell growth, NCI panel, 48 h
A549 NSCLC = tested on: A549 NSCLC
BT-549 breast = tested on: BT-549 breast
CAKI-1 renal = tested on: CAKI-1 renal
CCRF-CEM leukemia = tested on: CCRF-CEM leukemia
HL-60(TB) leukemia = tested on: HL-60(TB) leukemia
HOP-92 NSCLC = tested on: HOP-92 NSCLC
M14 melanoma = tested on: M14 melanoma
MALME-3M melanoma = tested on: MALME-3M melanoma
MCF7 breast = tested on: MCF7 breast
MDA-N = tested on: MDA-N
NCI-H522 lung = tested on: NCI-H522 lung
OVCAR-8 ovarian = tested on: OVCAR-8 ovarian
RXF 393 renal = tested on: RXF 393 renal
SF-295 CNS = tested on: SF-295 CNS
SK-MEL-5 melanoma = tested on: SK-MEL-5 melanoma
SN12C renal = tested on: SN12C renal
SW-620 colon = tested on: SW-620 colon
TK-10 renal = tested on: TK-10 renal
U251 CNS = tested on: U251 CNS
UO-31 renal = tested on: UO-31 renal

Row | SMILES | TGI (A549 NSCLC) [µM] | TGI (BT-549 breast) [µM] | TGI (CAKI-1 renal) [µM] | TGI (CCRF-CEM leukemia) [µM] | TGI (HL-60(TB) leukemia) [µM] | TGI (HOP-92 NSCLC) [µM] | TGI (M14 melanoma) [µM] | TGI (MALME-3M melanoma) [µM] | TGI (MCF7 breast) [µM] | TGI (MDA-N) [µM] | TGI (NCI-H522 lung) [µM] | TGI (OVCAR-8 ovarian) [µM] | TGI (RXF 393 renal) [µM] | TGI (SF-295 CNS) [µM] | TGI (SK-MEL-5 melanoma) [µM] | TGI (SN12C renal) [µM] | TGI (SW-620 colon) [µM] | TGI (TK-10 renal) [µM] | TGI (U251 CNS) [µM] | TGI (UO-31 renal) [µM]
1 | Cn1c(=O)c2c(nc3n(C)c(=O)c4ccccc4n23)n(C)c1=O | > 100 | > 100 | > 100 | 44.9 | > 100 | > 100 | > 100 | > 100 | > 100 | > 100 | > 100 | > 100 | > 100 | > 91.4 | > 100 | > 100 | > 100 | > 100 | > 100 | > 100
2 | Cc1ccc(/C=N/NS(=O)(=O)c2ccc(/C=C3\NC(=O)NC3=O)cc2)cc1 | > 100 | > 100 | > 100 | > 100 | > 100 | > 100 | > 100 | > 100 | > 100 | > 100 |  | > 100 | > 100 | > 100 | > 100 | > 100 | > 100 | > 100 | > 100 | > 100
3 | CC1C(O)Oc2cc3c(cc2C1c1ccccc1O)OCO3 (stereo not drawn) | > 100 | > 100 | > 100 | 51.2 | 36.7 | 47.2 | > 100 | 83.8 | > 100 | > 100 | 42.9 | > 100 | 48.4 | 65.5 | 98.5 | > 100 | > 100 | 89.6 | > 100 | > 100
4 | O=c1c(=[n+]2ccc(=C([O-])c3ccccc3)cc2)/c(=N/S(=O)(=O)c2ccccc2)c(=O)c2ccccc12 | 29.8 | 18 | 5.19 | 6.11 | 4.95 | 21.1 | 23.9 | 16.9 | 25.7 | 3.27 | 18.3 | 26.7 | 25.2 | 24.3 | 4.87 | 19 | 22 | 32.2 | 16.1 | 23.9
5 | Cc1ccc(S(=O)(=O)Nn2c(O)c(C#N)c(-c3ccc(N(C)C)cc3)c(C#N)c2=O)cc1 | > 50 | > 50 | > 50 | > 50 | > 50 | > 50 |  | > 50 | > 50 | > 50 | > 50 | > 50 | > 50 | 5.32 | > 50 | > 50 | > 50 | > 50 | > 50 | 
6 | O=C1COCCN1C(=O)c1ccccc1Cl | > 100 | > 100 | > 100 | > 100 | > 100 | > 100 | > 100 | > 100 | > 100 | > 100 | > 100 | > 100 | > 100 | > 100 | > 100 | > 100 | > 100 | > 100 | > 100 | > 100
7 | Cc1cc(O)c2c(c1)CC(O)C1=C2C(=O)c2c(O)ccc(OC3CC(O)C(OC4CC(OC5CCC(O)C(C)O5)C(O)C(C)O4)C(C)O3)c2C1=O (stereo not drawn) | 7.77 | 3.42 | 3.23 | 0.706 | 1.68 | 3.54 | 3.04 | 2.1 | 2.96 | 3.74 | 2.52 | 3.51 | 3.02 | 7.47 | 2.78 | 3.25 | 3.14 | 4.03 | 3.22 | 3.23
8 | Cc1nnc2n1N=C(c1cc(F)c(Cl)cc1Cl)/C(=C/c1ccc3c(c1)OCO3)S2 | > 100 | > 100 | > 100 | > 100 | > 100 | > 100 | > 100 | > 100 | > 100 | > 100 | 78.2 | > 100 | > 100 | > 100 | > 100 | > 100 | > 100 | > 100 | > 100 | > 100
9 | CC1=C[C@@H]2[C@@H](CC(CO)=C[C@H]3[C@@H]4C(C)(C)[C@]4(OCC(C)C)[C@H](OCC(C)C)[C@@H](C)[C@]23O)C1=O | > 8.32 | 2.65 | 3.69 | 8.12 | > 5.52 | > 5.57 | > 5.15 | 2.36 | 6.89 | 3.49 | 4.58 | > 6.08 | 3.69 | > 8.32 | > 4.37 | 4.22 | 4.68 | > 5.97 | 4.15 | > 6.8
10 | CN1CCc2cc(N)cc3c2C1Cc1ccc2c(c1-3)OCO2 (stereo not drawn) | > 100 | > 100 | > 100 | 15.9 | > 75.7 | 66.9 | > 100 | 58.6 | > 100 | > 100 | 53.1 | > 100 | > 88.2 | > 100 | 49.8 | > 88.6 | > 100 | > 88.8 | > 100 | 84.6
11 | c1cc(C[S+]2CCCC2)sc1C[S+]1CCCC1 | > 100 | > 100 | > 100 | > 100 | > 100 | > 100 | > 100 | > 100 | > 100 | > 100 | > 100 | > 100 | > 100 | > 100 | > 100 | > 100 | > 100 | > 100 | > 100 | > 100
12 | O=C(OCc1ccccc1)N1CCCc2c(n(S(=O)(=O)c3ccccc3)c3ccccc23)C1 | > 100 | > 100 | > 100 |  | > 100 | > 100 | > 100 | > 100 | > 100 | > 100 | > 100 | > 100 | > 100 | > 100 | > 100 | > 100 | > 100 | > 100 | > 100 | > 100
13 | CC(C)NC(=O)OCc1c(COC(=O)NC(C)C)c(-c2ccc[n+](COC(=O)C(C)(C)C)c2)n2c1CCC2 | > 100 | > 100 | 99.7 | > 100 | > 94.9 | > 100 | > 100 | > 100 | > 100 | > 100 | > 81.5 | > 100 | > 92.8 | > 100 | > 100 | > 100 | > 100 | > 100 | > 100 | > 100
14 | COC(=O)[C@H](COC(=O)/C=C/c1ccc(OC(C)=O)c(OC(C)=O)c1)NC(=O)/C=C/c1ccc(OC(C)=O)c(OC(C)=O)c1 | > 100 | 34.9 | 35.1 | > 100 | > 100 | 49.3 | 54.3 | 20.7 | > 100 | 38.8 |  | 67.4 | > 100 |  | 31.6 | 36.4 | > 100 |  | > 100 | 
15 | O=c1[nH]c2cc([N+](=O)[O-])ccc2nc1/C=C(\O)c1ccc(Cl)cc1 | 22.6 | 19.1 | 33.1 | 33.8 | 44.1 | 36.6 | 28.4 | 84.9 | 26.2 | 78.7 |  | 21.5 | 11.9 | 27.4 | 51.2 |  | 28.9 | 16.5 | 19.8 | 86.2
16 | O=S(=O)(O)C(Cc1nc2ccccc2[nH]1)S(=O)(=O)OCCC1S(=O)(=O)OCCOS1(=O)=O (stereo not drawn) | > 100 | > 100 | > 100 | > 100 | > 100 | > 100 | > 100 | > 100 | > 100 | > 100 | > 100 | > 100 | > 100 | > 100 | > 100 | > 100 | > 100 | > 100 | > 100 | > 100
17 | CCOC(=O)c1cc2cc(C)cc(C(=O)c3ccc([N+](=O)[O-])cc3)c2[nH]1 | > 100 | > 100 | > 100 |  | > 100 | > 100 | > 100 | > 100 | > 100 | > 100 | > 100 |  | > 100 | > 100 | > 100 | > 100 | > 100 | > 100 | > 100 | > 100
18 | COc1cccc(Nc2nc(N)nc(N)c2N=O)c1 | > 100 | 96.8 | 55.4 | 93.4 | 79 | 40 | 86.6 | > 100 | > 100 | > 100 | 29.5 | 40.9 | > 100 | 76.6 | 39.1 | > 100 | > 100 | 60.5 | > 100 | 38.1
19 | COc1ccc(C(SCC(N)C(=O)O)(c2ccc(OC)cc2)c2ccc(OC)cc2)cc1 (stereo not drawn) | > 31.6 | 28 | > 31.6 | > 31.6 | > 31.6 | 31.6 | 15.1 | 16 | 16.5 | 12.7 | 39.8 | 18 | 15.6 | 17.8 |  | 17.7 |  | 25.6 | 29.8 | 20
20 | COC(=O)/C=C1/OC(c2ccc(C)cc2)=C(Cl)C1=O | 40.4 | 42.2 | 29.7 | 11.7 | 10.2 | 34.1 | 35.5 | 33.5 | 34.9 | 33.1 | 23.2 | 41.3 | 26.6 | 41.7 | 27.9 | 38 | 28.9 | 34.9 | 24.6 | 31.6
21 | CCOC(=O)c1ccc(N=c2oc3ccc(OC)cc3cc2-c2nc3ccccc3[nH]2)cc1 | > 100 | > 100 | > 100 | > 100 | > 100 | > 100 | > 100 | > 100 | > 100 | > 100 | > 100 | 43.2 | > 100 | > 100 | 80.4 | > 100 | > 100 | > 100 | > 100 | > 100
22 | CCOC(=O)c1cc(C#N)[nH]c1-c1ccsc1 | > 100 | > 100 | > 100 | 69.3 | 41.5 | > 100 | > 100 | 77.3 | > 100 | > 100 | 90.2 | > 100 | 51.3 | > 100 | > 100 | > 100 | > 100 | > 100 | 87.8 | 
23 | CCOC(=O)c1ccc(Nc2nc3cc(C(F)(F)F)ccc3nc2C(=O)OCC)cc1 | > 100 | > 100 | 49.6 | > 100 | > 100 | > 100 | > 100 |  | > 100 | > 100 | > 100 | > 100 | > 100 | > 100 | 89.3 | > 100 | > 100 | 63.1 | 40.7 | > 100
24 | COc1ccc(N=CN(C)C)c(C)c1 | > 100 | 58.2 | > 100 | 16.5 | 4.1 | 36.3 | 55.5 | 54 | 44.3 | > 100 | 8.08 | 83.8 | 67.2 | 51.6 | 12.5 | 64 |  | > 100 | 72.5 | 78.1
